Source: US20110009474A1, “SIRTUIN BASED METHODS AND COMPOSITIONS FOR TREATING BETA-CATENIN-RELATED CONDITIONS” (President and Fellows of Harvard College, priority 2007, published 2011)

System: β-catenin transcriptional activity (pTOPFLASH reporter) in 293T cells
Experiment: TOPFLASH β-catenin luciferase reporter assay in transfected 293T cells
Type: cell-based, human
Conditions: NAM added eight hours after transfection, harvested 24 h post-transfection, normalized to Renilla luciferase, FIG. 4F

## NC(=O)c1cccnc1 [nicotinamide]
  luciferase reporter activity (pTOPFLASH β-catenin reporter): increased luciferase reporter activity
